Like-named read-outs stand apart in the source and are kept apart here. Square brackets hold non-standard residues; d marks the D form. Ends that are not written are not given here. Peptide text beside a SMILES is read from it. Oic = O=C(O)[C@@H]1C[C@@H]2CCCC[C@@H]2N1; Hyp = O=C(O)[C@@H]1C[C@@H](O)CN1; dTic = O=C(O)[C@H]1Cc2ccccc2CN1; 2Thi = N[C@@H](Cc1cccs1)C(=O)O
How the values were obtained:
MDA-MB-231 cells [1] = assay: MTT proliferation assay; assay type: cell-based, human; conditions: B2R shRNA knockdown MDA-MB-231 cells vs scrambled shRNA
Description: (§1) Cell proliferation assay on MDA-MB-231 cells was determined with colorimetric MTT as we described. Briefly, cells were seeded in a 96 wells plate at 2,000 cells/well in DMEM media supplemented with 10% FBS for 24h at 37°C. Cells were then incubated with and without the B2RAs at the indicated concentrations for the time shown. At the end of treatment period, MTT (0.25 mg/ml) was added to the cells and incubated for 1h30 at 37°C. Thereafter, the cell medium was removed, the formazan product solubilized in acidified isopropanol (100 µl of 1N HCl/anhydrous isopropanol 1:25) and the absorbance determined at 570 nm with an ELISA microplate reader (Spectra Max Plus, Molecular Devices, Sunnyvale, CA). For assessing the cytotoxicity of B2RAs and chemotherapeutic agents (carmustine, doxorubicin, carboplatin, temozolomide and paclitaxel), cells were grown to confluency in multi-well plates and exposed to starving media (DMEM without FBS) for 24h before beginning of the antagonist treatment. Cells were then incubated with MTT and treated exactly as described above. Cell viability was expressed as a percentage of optical density (OD) values obtained upon treatment relative to control.

MDA-MB-231 cells [2] = assay: Cellular incorporation of B2RAs by LC-MS/MS; conditions: 2.5 µM antagonist, 37°C
Description: Permeability of MDA-MB-231 cells to B2RAs was evaluated by either confocal microscopy or LC-MS/MS analyses. […] Mass spectrometry. […] At the end of treatments, cells underwent an acid wash to facilitate the release of surface bound ligands. Cell contents were released from hypotonic lysis using a 40:60 mixture of 15 mM Tris-HCl pH 7.4 / methanol. Cell lysates were next sonicated and subjected to protein precipitation following addition of 0.1% v/v formic acid. Precipitated proteins were removed by centrifugation and supernatants were concentrated using a Speedvac centrifugal evaporator. The sample was subjected to quantification using LC-MS/MS on a triple quadrupole mass spectrometer (Agilent G6410B). A calibration curve made from nine different concentrations of the reference compounds dissolved in suitable HPLC mobile phase solvents, was used to estimate antagonist intracellular content in each sample. The limit of quantification was 75 fmol (1 nM/75 µl).

MDA-MB-231 cells [3] = assay: Annexin V/PI apoptosis and beta-galactosidase senescence assays; assay type: cell-based, human
Description: The effect of B2RAs on cellular senescence was assessed using the Senescence β-Galactosidase Staining Kit (Cell Signaling). MDA-MB-231 cells were plated at 500 000 cells/well in 6-well plates, and serum-starved right before the beginning of treatments. Cells were treated with and without the B2RAs at the indicated concentrations for 72 h. At the end of treatment, surviving cells were fixed with 2% formaldehyde, 0.2% glutaraldehyde for 15 min at room temperature. Fixed cells were then washed and stained with fresh senescence-associated β-galactosidase stain solution (sodium phosphate buffer, pH 6.0, containing 1mg of X-gal (5-bromo-4-chloro-3-indolyl-β-d-galactopyranoside)/ml 40 mM citric acid, 5 mM potassium ferrocyanide, 5 mM potassium ferricyanide, 150 mM NaCl, 2 mM MgCl2) at 37°C. Staining was detected by light microscopy. As a positive control for senescence, we serum starved porcine cerebral microvascular endothelial cells (pCMVEC) (kindly provided by S Chemtob) for 48 h.
MDA-MB-231 and COS-1 cells were plated at 500,000/well in 6-well plates containing medium (10% FBS/DMEM), and allowed to adhere for about 18 h. On the next day, cells were serum-starved and then treated with and without the B2RAs at the indicated concentrations for 24 h. To assess induction of apoptosis due to treatment, we used the Annexin-V-FLUOS Staining kit (Roche) according to manufacturer’s specifications. Briefly, at the end of treatments, cells were harvested, rinsed and incubated in 100 µl of Annexin-V-FLUOS labeling solution (containing 2 µl of Annexin-V-Fluos reagent and 1 µl of PI (15 µg/ml)) for 15 min at room temperature. Cells were analyzed on a FACSCanto II flow cytometer (BD Biosciences). Early stage apoptosis was measured using annexin V-Fluos (RocheMolecular Biochemicals) in conjunction with PI (Sigma) to distinguish among early apoptosis and late apoptosis/necrosis. Bar diagram showing the distribution of early, late/necrotic cell populations.

MDA-MB-231 cells [4] = assay: Anchorage-dependent clonogenic assay; assay type: cell-based, human; conditions: for colony formation (antagonist effect): 1 to 100 µM (FR173657 up to 25 µM), 10-14 days
Description: MDA-MB-231 cells were plated at 200 cells/well in a six-well dish in 2 ml DMEM medium containing 10% FBS. […] After 10 to 14 days, colonies were fixed and stained with 0.5% methylene blue in 50% ethanol. Excess of staining solution was removed carefully with tap water and the plates were dried overnight. Colony counting and densitometric analyses (to measure total colony numbers and surface areas) were performed using the Image Pro Plus 5.1 software.

MDA-MB-231 cells [5] = assay: Western blot of cell cycle, apoptosis and p38 proteins; assay type: cell-based, human
Description: For western blot analysis, appropriate amount of cell lysates or membrane and nuclear fractions (25–50 µg protein) were denatured, resolved on 9–12% SDS–PAGE and electrotransferred onto PVDF membranes. Blots were blocked using 5% nonfat dry milk and probed using appropriate primary antibodies in blocking buffer overnight at 4°C.

[6] = Distribution coefficient n-octanol/PBS pH 7.4, shake flask
Description: Equal volumes of octanol and PBS (137 mM NaCl, 2.7 mM KCl, 10 mM Na2HPO4, 2 mM KH2PO4, pH 7.4), were mixed and allowed to equilibrate for 24h. The layers were then separated and stored at 4°C. At testing, the compounds (200 µM) was added to 200 µl of aqueous phase and mixed with an equal volume of octanol by vortexing for 2 min. The octanol/buffer solution was centrifuged for 5 min at 1000 x g. After separation into aqueous and octanol phases, compound content of the aqueous and octanol phases was quantified by RP-HPLC (Agilent1100 series). […] All octanol/buffer distribution studies were performed in duplicate. The octanol/buffer coefficient was calculated as the ratio of octanol layer to the buffer layer.

MDA-MB-231 cells [7] = assay: Drug-drug synergy experiments (MTT, combination index); assay type: cell-based, human; conditions: IC25 ratios, 72h, CalcuSyn
Description: Interactions (synergy, additive, antagonistic activities) between CP-B2RAs (FR173657 and NG68) and chemotherapeutic drugs (doxorubicin and paclitaxel) were evaluated using MTT standard assays. Twenty-four hours after seeding, cells were treated with CP-B2RAs, the other testing drug, or in combination. For combination testing, CP-B2RAs or the other testing drugs were added to plate in triplicate wells in ratios of IC25 (IC25A: IC25B), and cells are incubated in drug-treated medium for 72h and cell viability determined by MTT. Synergy was determined by calculating combination index (CI) value with the formula CI = (CA,X / ICx,A) + (CB,X / ICx,B), where CA,X and CB,X are concentrations of drug A and drug B used in combination to achieve x% drug effect. ICx,A and ICx,B are concentrations for single agents to achieve the same effect. A CI of less than, equal to, and more than 1 indicates synergy, additivity, and antagonism, respectively.

MDA-MB-231 cells [8] = assay: PI staining cell cycle analysis by flow cytometry; assay type: cell-based, human; conditions: 24 h treatment; HOE 140 up to 100 μM
Description: MDA-MB-231 were plated at 500,000/plate in 10 cm plates containing medium (10% FBS/DMEM), and allowed to adhere for about 18 h. Thereafter, cells were serum-starved and treated with and without the B2RAs at the indicated concentrations for 24 h. At the end of treatments, cells were harvested, rinsed and fixed with ice cold ethanol 95%, for 2 h at 4°C. Fixed cells were rehydrated with 800 µl PBS for 30 min, and then washed again with PBS to remove all traces of ethanol. Cells were treated with RNase for 30 min prior to staining. PI was added to cell suspension at a concentration of 15 µg/ml and incubated overnight at 4°C. PI staining was assessed by flow cytometry using a FACSCanto II flow cytometer (BD Biosciences).

MDA-MB-231 cells [9] = assay: MTT cytotoxicity (cell viability) assay; assay type: cell-based, human; conditions: for cytotoxic effect: at a concentration of 100 µM
Description: as §1

[10] = 24h treatment, whole-cell lysates
[11] = Homo sapiens, MDA-MB-231, MTT assay after 72h drug exposure, means ± s.e.m., n = 6 to 8, read-out: IC50 values (cytocidal activity)

N=C(N)NCCC[C@H](NC(=O)[C@@H]1C[C@@H]2CCCC[C@@H]2N1C(=O)[C@H]1Cc2ccccc2CN1C(=O)[C@H](CO)NC(=O)[C@H](Cc1cccs1)NC(=O)CNC(=O)[C@@H]1C[C@@H](O)CN1C(=O)[C@@H]1CCCN1C(=O)[C@H](CCCNC(=N)N)NC(=O)[C@@H](CCCNC(=N)N)NC(=O)CNC(=O)CNC(=O)CNC(=O)[C@@H](CCCNC(=N)N)NC(=O)[C@@H](CCCNC(=N)N)NC(=O)[C@@H](CCCNC(=N)N)NC(=O)[C@@H](CCC(N)=O)NC(=O)[C@@H](CCCNC(=N)N)NC(=O)[C@@H](CCCNC(=N)N)NC(=O)[C@@H](CCCCN)NC(=O)[C@@H](CCCCN)NC(=O)[C@@H](CCCNC(=N)N)NC(=O)CN)C(=O)O [D-Tat-HOE 140 (NG68)] (H-G[dR][dK][dK][dR][dR][dQ][dR][dR][dR]GGG[dR]RP[Hyp]G[2Thi]S[dTic][Oic]R-OH; N-terminus and C-terminus assumed)
cytostatic activity after B2R downregulation (MDA-MB-231 cells [1]): significantly attenuated
Cellular incorporation (MDA-MB-231 cells [2]; 15 min): 5 pmol/10^6 cells
Cellular incorporation (MDA-MB-231 cells [2]; 4 h): 14 pmol/10^6 cells
induction of apoptosis / senescence (MDA-MB-231 cells [3]; Annexin V and active caspase-3 positivity 24h, β-galactosidase 72h): underwent apoptosis, but not senescence
colony formation (antagonist effect) (MDA-MB-231 cells [4]): concentration-responsive clonal repression
expression of BAD and p27Kip1 (MDA-MB-231 cells [5]; [10]): increased expression
levels of MAPK and cyclin A (MDA-MB-231 cells [5]; [10]): decreased the levels of MAPK and cyclin A
phosphorylation of p38 (MDA-MB-231 cells [5]; over time): significantly increased the phosphorylation
logD ([6]; pH 7.4, Distribution coefficient log D, n-octanol/PBS (pH 7.4), shake flask, RP-HPLC quantification): -3.02
combination index (CI) (MDA-MB-231 cells [7]; combination with doxorubicin): below 1
combination index (CI) (MDA-MB-231 cells [7]; combination with paclitaxel): ~1
cell cycle distribution (MDA-MB-231 cells [8]): tend to induce G0/G1 cell cycle arrest

C[S+]([O-])c1ccc(-c2nc(-c3ccncc3)c(-c3ccc(F)cc3)[nH]2)cc1 (stereo not drawn) [SB203580]
clonogenicity, inhibitor alone (MDA-MB-231 cells [4]; 10 µM, 14 days): had no effect

Cn1nnc2c(C(N)=O)ncn2c1=O [Temozolomide (Temodar), Temozolomide]
IC50 (MDA-MB-231 cells [9]; [11]): > 100 µM
cytotoxic effect (MDA-MB-231 cells [9]): did not show significant cytotoxic effect

C[C@H](CCC(=O)N[C@H](CCCNC(=N)N)C(=O)N[C@@H](CCCNC(=N)N)C(=O)N1CCC[C@H]1C(=O)N1C[C@H](O)C[C@H]1C(=O)NCC(=O)N[C@@H](Cc1cccs1)C(=O)N[C@@H](CO)C(=O)N1Cc2ccccc2C[C@@H]1C(=O)N1[C@H](C(=O)N[C@@H](CCCNC(=N)N)C(=O)O)C[C@@H]2CCCC[C@@H]21)[C@H]1CC[C@H]2[C@@H]3[C@H](O)C[C@@H]4C[C@H](O)CC[C@]4(C)[C@H]3C[C@H](O)[C@]12C [Cholic-HOE 140 (NG134)]
IC50 (MDA-MB-231 cells [9]; 72 h): > 100 µM
Cellular incorporation (MDA-MB-231 cells [2]; 15 min): 13 pmol/10^6 cells
Cellular incorporation (MDA-MB-231 cells [2]; 4 h): 22 pmol/10^6 cells
colony formation (antagonist effect) (MDA-MB-231 cells [4]): concentration-responsive clonal repression

N.N.O=C([O-])C1(C(=O)[O-])CCC1.[Pt+2] [Carboplatin]
IC50 (MDA-MB-231 cells [9]; MTT assay after 72h drug exposure, means ± s.e.m., n = 6 to 8, read-out: IC50 values (cytocidal activity)): > 100 µM
cytotoxic effect (MDA-MB-231 cells [9]): did not show significant cytotoxic effect

O=NN(CCCl)C(=O)NCCCl [BCNU (carmustine), carmustine]
IC50 (MDA-MB-231 cells [9]; [11]): 62 ± 1 µM

NC(N)=NCCC[C@@H](N)C(=O)N[C@@H](CCCN=C(N)N)C(=O)N1CCC[C@H]1C(=O)N1C[C@H](O)C[C@H]1C(=O)NCC(=O)N[C@@H](Cc1cccs1)C(=O)N[C@@H](CO)C(=O)N1Cc2ccccc2C[C@@H]1C(=O)N1[C@H](C(=O)N[C@@H](CCCN=C(N)N)C(=O)O)C[C@@H]2CCCC[C@@H]21 [HOE 140]
IC50 (MDA-MB-231 cells [9]; 72 h): > 100 µM
Cellular incorporation (MDA-MB-231 cells [2]; 15 min): 0 pmol/10^6 cells
Cellular incorporation (MDA-MB-231 cells [2]; 4 h): 0 pmol/10^6 cells
Cellular incorporation (MDA-MB-231 cells [2]; 24 h): 0 pmol/10^6 cells
logD ([6]; pH 7.4): -3.06

CC(=O)O[C@H]1C(=O)[C@@]2(C)[C@H]([C@H](OC(=O)c3ccccc3)[C@]3(O)C[C@H](OC(=O)[C@H](O)[C@@H](NC(=O)c4ccccc4)c4ccccc4)C(C)=C1C3(C)C)[C@]1(OC(C)=O)CO[C@@H]1C[C@@H]2O [Paclitaxel (Taxol), Paclitaxel]
IC50 (MDA-MB-231 cells [9]; [11]): 10 ± 1 µM

COc1cccc2c1C(=O)c1c(O)c3c(c(O)c1C2=O)C[C@@](O)(C(=O)CO)C[C@@H]3O[C@H]1C[C@H](N)[C@H](O)[C@H](C)O1 [Adriamycin (doxorubicin), doxorubicin]
IC50 (MDA-MB-231 cells [9]; [11]): 2 ± 1 µM

DTat: vector alone; modified HIV-1 Tat peptide sequence GRKKRRQRRR in D-configuration (G[dR][dK][dK][dR][dR][dQ][dR][dR][dR])
intrinsic activity of vector alone (MDA-MB-231 cells [3]; up to 100 μM, in any of the above assays): did not exhibit intrinsic activity
